Test results: patent US20230102840A1, “COMPOSITIONS AND METHODS RELATING TO COMBINATORIAL HYALURONIC ACID CONJUGATES” (PRESIDENT AND FELLOWS OF HARVARD COLLEGE, priority 2020, published 2023)
pIC50: −log10 of the molar value. In brackets after ≈: the same amount, converted by molar mass.

Key:
[1] = system: B16F10-Luc melanoma cells cocultured with BMDM; experiment: Cytotoxicity study, B16F10-Luc cocultured with BMDM; type: cell-based; conditions: coculture with BMDM; compared with B16F10 alone
Procedure: (§1) 5×10^3 B16F10-Luc cells were seeded in 96 well plates and allowed to adhere overnight. For establishment for a coculture, B16F10 cells were cocultured with BMDM at a ratio of 1:10 (5×10^3 B16F10: 5×10^4 BMDM per well). The next day, the media was aspirated and replaced with increasing concentration of the free drugs, combination and the HA-conjugates with equivalent free drug concentrations and cells were incubated with the drug solutions for 48 h after which the treatment was aspirated and replaced with 0.5% Xenolight-D-luciferin potassium salt solution in complete DMEM. Finally, cellular viability was assessed by reading the luminescence of the solution from each well after 5 min using BioTek plate reader. Untreated cells were used as controls.

[2] = system: B16F10-Luc melanoma cells; experiment: Cytotoxicity study on B16F10-Luc cells; type: cell-based; conditions: 48 h
Procedure: as §1

[3] = system: A431 cells; experiment: In vitro cytotoxicity on A431 cells; type: cell-based; conditions: Homo sapiens, A-431; 48 h, alamar blue
Procedure: A431 cells were cultured in DMEM media supplemented with 10% FBS, 1% Pen Strep. The cells were passaged 3-4 times prior to setting up the assay. […] Cells were cultured in a humidified incubator maintained at 37° C. and 5% C02 (Thermo scientific, USA). A431 Cells (5×10^3 in 100 ul in complete DMEM) were seeded in 96 well plates and allowed to adhere overnight. The next day, cell culture media was aspirated and replaced with the different treatments. The cells were incubated with the drug solutions for 48 hr after which the treatment was aspirated and replaced with 10% alamar blue (AB) solution in complete DMEM and incubated for an additional 3.5 h in the dark at 37° C. […] Finally, cellular viability was assessed by reading the florescence of the solution from each well at λex=560 nm and λem=590 nm. […] Baseline fluorescence levels from wells without cells were subtracted from each data (Dose response curves were fit to each drug and/or polymer drug conjugate with the median effect model^[28]. For combination treatment, synergy was quantified with the combination index^[29]

[4] = background statement; cited from earlier work
[5] = system: BMDM; experiment: BMDM polarization (M1/M2 marker expression); type: cell-based; conditions: 48 hr, vs untreated cells
Procedure: To further elucidate the effect of HA-RES and HA-BEX and their combination on macrophage phenotyping the inventors studied their effect on macrophage polarization. BMDMs were treated with different concentrations of RES and HA-RES for 48 hr. (FIG. 6A)
The expression of several markers associated with M1 and M2 phenotypes was evaluated.

[6] = system: BMDM; experiment: Viability of BMDM after 48 h treatment; type: cell-based
Procedure: Immune cells system as macrophages and dendritic cells are responsible for the initiation of immune responses, and are the prime target for immunostimulatory drugs. To verify that the HA-RES conjugate is not toxic for immune cells, BMDM were treated with increasing concentrations of RES or HA-RES for 48 h.
The inventors also tested the effect of BEX and its HA conjugate on the viability of BMDM by exposing them to increasing concentration ranging from (0.39-50 μM).

[7] = system: primary human fibroblasts; experiment: Cell viability study in primary human fibroblasts; type: cell-based; conditions: increasing concentrations, 48 h, relative to the untreated control
Procedure: Primary human fibroblast (seeded at density 5,000 cells/well) and primary human keratinocytes (at density 2,000 cells/well) were used for the cytotoxicity studies in vitro. The culture media used for the keratinocytes was keratinocyte serum free medium supplemented with L-glutamine, EGF and BPE while that for fibroblasts was Dulbecco's Modified Eagle's Medium-high glucose supplemented with 2% penicillin/streptomycin and 5% FBS. Cells were incubated in a humidified incubator under 5% CO2 at 37° C. After 24 h, 50 μL of the media were withdrawn and replaced by 50 ul of increasing concentrations of each treatment reaching a final volume of 100 μL in the well. Cells were incubated for 48 h under standard cell culture conditions after which cell viability was assessed by AB assay as previously described.

SMILES: C=C(c1ccc(C(=O)O)cc1)c1cc2c(cc1C)C(C)(C)CCC2(C)C [BEX, Bexarotene]
- IC50 in the presence of MAC [1]: same IC50
- pIC50 ([2]; Mus musculus, B16-F10, luminescence viability): 4.60
- pIC50 [3]: 4.22
- aqueous solubility [4]: ~10 µM (≈ 3.48 µg/mL)
- expression of CD206 (M2 marker) [5]: significant reduction
- viability of BMDM ([6]; 50 uM): significant decrease in the cells viability
- viability of BMDM ([6]; all concentrations tested up to 25 uM (range 0.39-50 μM)): didn't alter the viability
- viability of primary human dermal fibroblasts [7]: did not significantly affect the cell viability

SMILES: CCOCc1nc2c(N)nc3ccccc3c2n1CC(C)(C)O [RES, Resiquimod]
- cytotoxic effect on melanoma cells ([2]; B16F10-Luc alone): negligible cytotoxic effect
- viability of BMDM ([6]; increasing concentrations, 48 h, all concentrations tested): marked increase in cell viability

SMILES: O=C(CCCCCCC(=O)Nc1ccccc1)NO [VOR, Vorinostat]
- viability of primary human dermal fibroblasts [7]: did not significantly affect the cell viability
